One compound from patent US8399196B2, “Nucleic acid sequencing methods, kits and reagents” (GeneForm Technologies Limited, priority 2003, dated 2013) can be followed below.

This test deals with T1, Klenow exo- with template-primer (Escherichia coli, UniProt P00582, D355A/E357A).
T1 construct: purchased New England Biolabs
Type of test: binding. As to conditions: for signal +polymerase + DUpNHPP: 0.3 uM Dye-DUTP conjugate, buffer background subtracted. How it is done:
(1) Dideoxy terminated primer and template were mixed at a ratio of 2:1 (final template concentrations were varied as shown)
(2) DGTP DCTP and DATP was added to a final concentration of 1 mM.
(3) 0.3 uM of Intercalator-Dye-DUTP conjugate was added to the system.
(4) In some samples non-incorporable DUTP (DUPNHPP) was added as shown.
(5) 300 nM Klenow exo- was added
(6) The system was heated to at 37° C.
Where the intercalating dye is conjugated to DNPNHPP or other nonincorporable entities, then the dideoxy terminated primer is unnecessary and will allow sequential sequencing if a limited concentration of native bases are added.
Buffer background subtracted.

Read-outs that look alike come from different tables or passages of the source.

T1 sequence (P00582 324-928 D355A/E357A): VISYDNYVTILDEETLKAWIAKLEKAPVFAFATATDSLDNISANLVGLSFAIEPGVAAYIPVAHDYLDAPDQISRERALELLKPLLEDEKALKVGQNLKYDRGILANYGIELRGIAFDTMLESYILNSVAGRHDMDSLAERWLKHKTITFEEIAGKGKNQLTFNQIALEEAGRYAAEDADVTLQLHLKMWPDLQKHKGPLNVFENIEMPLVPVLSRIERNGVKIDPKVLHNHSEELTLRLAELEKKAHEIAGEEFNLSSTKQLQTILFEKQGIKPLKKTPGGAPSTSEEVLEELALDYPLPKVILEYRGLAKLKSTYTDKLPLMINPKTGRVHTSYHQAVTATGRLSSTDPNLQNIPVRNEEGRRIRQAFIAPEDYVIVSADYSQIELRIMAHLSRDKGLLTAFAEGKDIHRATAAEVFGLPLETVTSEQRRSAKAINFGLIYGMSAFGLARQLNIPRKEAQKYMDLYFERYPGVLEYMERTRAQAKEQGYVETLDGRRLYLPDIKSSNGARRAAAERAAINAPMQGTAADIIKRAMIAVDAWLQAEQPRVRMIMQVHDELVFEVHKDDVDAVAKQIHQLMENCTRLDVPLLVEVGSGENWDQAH

For `O=c1ccn([C@H]2CC(O)[C@@H](COP(=O)(O)NP(=O)(O)OP(=O)(O)O)O2)c(=O)[nH]1` (stereo partly shown) [DUPNHPP], for the setting “DUPNHPP added in competition with 0.3 uM Dye-DUTP, DUPNHPP concentration not given”, the “signal, T-P + Dye-DUTP + Primer1 + DUPNHPP” value is 320. Further, the “signal +polymerase + DUpNHPP” value (Template-primer-a 0.015625 uM) is 55; the “signal +polymerase + DUpNHPP” value (Template-primer-a 0.03125 uM) came to 114; the “signal +polymerase + DUpNHPP” value (Template-primer-a 0.0625 uM) is reported as 234; the “signal +polymerase + DUpNHPP” value (Template-primer-a 0.125 uM) is given as 438; the “signal +polymerase + DUpNHPP” value (Template-primer-a 0.25 uM) turned out to be 916; the “signal +polymerase + DUpNHPP” value (Template-primer-a 0.5 uM) came to 1802.
